Where two headings read alike, the source gives them in different places.
What was measured:
SARS-CoV-2 Mpro = SARS-CoV-2 Mpro (Severe acute respiratory syndrome coronavirus 2, UniProt P0DTD1); assay: SARS-CoV-2 Mpro enzymatic inhibition assay (fluorescence); format: biochemical
Summary of the method: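 Recombinant Mpro expressed in E. coli was preincubated 30 min at room temperature with 10-point, 3-fold serially diluted compound in duplicate. Fluorogenic substrate was then added and incubated 60 min at 30° C, and fluorescence read at Ex/Em 340/490 nm. IC50 came from a four-parameter fit of % inhibition.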

HCoV-NL63 Mpro = HCoV-NL63 Mpro (Human coronavirus NL63, UniProt P0C6X5); assay: HCoV-NL63 Mpro enzymatic inhibition assay (fluorescence); format: biochemical
Summary of the method: (§1)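 E. coli-expressed Mpro was preincubated with 10-dose, 3-fold diluted compound for 30 min at room temperature before fluorogenic substrate was added. After 60 min at 30 °C, fluorescence was read at Ex/Em 340/490 nm. Inhibition % was normalized to DMSO and GC376 controls with no-enzyme background correction, and IC50 came from a four-parameter fit.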

MERS Mpro = MERS Mpro (Middle East respiratory syndrome-related coronavirus, UniProt K9N7C7); assay: biochemical; design: species or system MERS-CoV
HCoV-HKU1 Mpro = HCoV-HKU1 Mpro (Human coronavirus HKU1, UniProt P0C6X2); assay: HCoV-HKU1 Mpro enzymatic inhibition assay (fluorescence); format: biochemical
Summary of the method: as §1

SARS-CoV-1 Mpro = SARS-CoV-1 Mpro (Severe acute respiratory syndrome coronavirus, UniProt P0C6X7); assay: biochemical
HCoV-OC43 Mpro = HCoV-OC43 Mpro (Human coronavirus OC43, UniProt P0C6X6); assay: HCoV-OC43 Mpro enzymatic inhibition assay (fluorescence); format: biochemical
Summary of the method: as §1

HCoV-229E Mpro = HCoV-229E Mpro (Human coronavirus 229E, UniProt P0C6X1); assay: HCoV-229E Mpro enzymatic inhibition assay (fluorescence); format: biochemical
[1] = mean, 25 nM protein, 25 μM substrate, 30 min pre-incubation, 60 min at 30° C., read-out: Mpro_SARS-CoV-2 mean IC50

Chain of HCoV-OC43 Mpro (P0C6X6 3247-3549 limits assumed): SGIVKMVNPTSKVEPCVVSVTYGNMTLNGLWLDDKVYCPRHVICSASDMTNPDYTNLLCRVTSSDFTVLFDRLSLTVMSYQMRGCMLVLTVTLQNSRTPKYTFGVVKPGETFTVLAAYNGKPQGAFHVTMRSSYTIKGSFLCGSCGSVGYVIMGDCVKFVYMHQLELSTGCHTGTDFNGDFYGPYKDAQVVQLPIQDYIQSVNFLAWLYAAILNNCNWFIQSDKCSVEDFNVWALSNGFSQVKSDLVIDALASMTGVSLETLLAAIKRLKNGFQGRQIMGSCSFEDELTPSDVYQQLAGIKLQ
Chain of HCoV-HKU1 Mpro (P0C6X2 3335-3637 limits assumed): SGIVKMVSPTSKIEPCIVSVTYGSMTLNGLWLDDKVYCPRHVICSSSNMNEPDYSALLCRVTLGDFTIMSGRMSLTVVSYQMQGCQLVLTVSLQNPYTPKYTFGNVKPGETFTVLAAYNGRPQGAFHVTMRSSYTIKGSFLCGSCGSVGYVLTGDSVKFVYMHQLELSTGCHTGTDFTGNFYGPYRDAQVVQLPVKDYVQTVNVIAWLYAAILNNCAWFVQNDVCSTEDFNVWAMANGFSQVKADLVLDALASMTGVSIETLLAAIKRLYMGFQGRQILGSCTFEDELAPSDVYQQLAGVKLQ
Chain of HCoV-NL63 Mpro (P0C6X5 2940-3242 limits assumed): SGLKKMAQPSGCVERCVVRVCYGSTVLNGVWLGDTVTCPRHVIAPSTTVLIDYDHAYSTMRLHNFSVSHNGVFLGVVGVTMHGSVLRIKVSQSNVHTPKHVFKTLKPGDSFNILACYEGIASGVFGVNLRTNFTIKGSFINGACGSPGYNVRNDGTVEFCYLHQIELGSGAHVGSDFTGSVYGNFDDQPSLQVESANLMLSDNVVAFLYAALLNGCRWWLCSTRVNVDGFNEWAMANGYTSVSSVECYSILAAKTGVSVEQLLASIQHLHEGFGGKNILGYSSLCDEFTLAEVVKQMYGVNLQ
Chain of HCoV-229E Mpro (P0C6X1 2966-3267 limits assumed): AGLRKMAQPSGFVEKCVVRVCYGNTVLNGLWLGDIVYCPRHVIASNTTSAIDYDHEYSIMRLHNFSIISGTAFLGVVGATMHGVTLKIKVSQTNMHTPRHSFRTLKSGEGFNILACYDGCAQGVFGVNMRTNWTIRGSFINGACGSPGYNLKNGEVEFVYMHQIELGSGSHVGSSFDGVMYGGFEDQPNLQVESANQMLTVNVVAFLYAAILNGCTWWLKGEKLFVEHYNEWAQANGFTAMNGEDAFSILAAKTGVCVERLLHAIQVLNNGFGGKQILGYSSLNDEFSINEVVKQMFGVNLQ
Chain of MERS Mpro (K9N7C7 3248-3553 limits assumed): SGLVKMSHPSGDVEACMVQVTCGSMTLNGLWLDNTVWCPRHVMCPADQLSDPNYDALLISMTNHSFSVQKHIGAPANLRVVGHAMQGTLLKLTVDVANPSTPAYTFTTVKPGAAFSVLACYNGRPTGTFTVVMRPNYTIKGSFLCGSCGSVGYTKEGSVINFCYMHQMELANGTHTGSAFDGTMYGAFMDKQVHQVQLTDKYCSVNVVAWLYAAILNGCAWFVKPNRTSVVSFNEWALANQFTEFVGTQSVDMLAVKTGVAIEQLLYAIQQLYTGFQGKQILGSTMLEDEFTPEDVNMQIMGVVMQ

Compound	IC50 (SARS-CoV-2 Mpro) [µM]	IC50 (HCoV-NL63 Mpro) [µM]	IC50 (MERS Mpro) [µM]	IC50 (HCoV-HKU1 Mpro) [µM]	IC50 (SARS-CoV-1 Mpro) [µM]	IC50 (HCoV-OC43 Mpro) [µM]	IC50 (HCoV-229E Mpro) [µM]	IC50 (SARS-CoV-2 Mpro; [1]) [µM]
CC1(C)C[C@@H](C(=O)N[C@H](C=O)C[C@@H]2CCNC2=O)N(C(=O)c2cc3cccc(F)c3[nH]2)C1 [Compound 62, (S)-1-(7-Fluoro-1H-indole-2-carbonyl)-4,4-dimethyl-N—((S)-1-oxo-3-((S)-2-oxopyrrolidin-3-yl)propan-2-yl)pyrrolidine-2-carboxamide]	0.0263	0.0907	0.535	0.0557	0.0771	0.145	0.0644	
CC1(C)[C@@H]2[C@@H](C(=O)N[C@H](C=O)C[C@@H]3CCNC3=O)N(C(=O)CC3CCCCC3(F)F)C[C@@H]21 (stereo partly drawn) [Compound 64, (1R,2S,5S)-3-(2-(2,2-Difluorocyclohexyl)acetyl)-6,6-dimethyl-N—((S)-1-oxo-3-((S)-2-oxopyrrolidin-3-yl)propan-2-yl)-3-azabicyclo[3.1.0]hexane-2-carboxamide]	0.027	0.105	0.224	0.0465	0.0466	0.0658	0.0532	
COc1cccc2[nH]c(C(=O)N3C[C@H]4[C@@H]([C@H]3C(=O)N[C@H](C=O)C[C@@H]3CCNC3=O)C4(C)C)cc12 [Compound 65, (1R,2S,5S)-3-(4-Methoxy-1H-indole-2-carbonyl)-6,6-dimethyl-N—((S)-1-oxo-3-((S)-2-oxopyrrolidin-3-yl)propan-2-yl)-3-azabicyclo[3.1.0]hexane-2-carboxamide]		0.0241	0.32	0.0211	0.0331	0.0252	0.038	0.027
C[C@@H](C(=O)N1C[C@H]2[C@@H]([C@H]1C(=O)N[C@H](C=O)C[C@@H]1CCNC1=O)C2(C)C)C1CCCCC1 [Compound 67, (1R,2S,5S)-3-((R)-2-Cyclohexylpropanoyl)-6,6-dimethyl-N—((S)-1-oxo-3-((S)-2-oxopyrrolidin-3-yl)propan-2-yl)-3-azabicyclo[3.1.0]hexane-2-carboxamide]	0.0278	0.0518	0.17	0.0108	0.0441	0.0332	0.0273	
Cc1cc(Cl)cc2cc(C(=O)N3C[C@H]4[C@@H]([C@H]3C(=O)N[C@H](C=O)C[C@@H]3CCNC3=O)C4(C)C)[nH]c12 [Compound 69, (1R,2S,5S)-3-(5-Chloro-7-methyl-1H-indole-2-carbonyl)-6,6-dimethyl-N—((S)-1-oxo-3-((S)-2-oxopyrrolidin-3-yl)propan-2-yl)-3-azabicyclo[3.1.0]hexane-2-carboxamide]	0.0292	0.0807	0.476	0.0326	0.0488	0.0798	0.0505	
O=C[C@H](C[C@@H]1CCNC1=O)NC(=O)[C@@H]1C[C@@H](C2CCCCC2)CN1C(=O)c1cc2cccc(F)c2[nH]1 [Compound 71, (2S,4S)-4-cyclohexyl-1-(7-fluoro-1H-indole-2-carbonyl)-N—((S)-1-oxo-3-((S)-2-oxopyrrolidin-3-yl)propan-2-yl)pyrrolidine-2-carboxamide]	0.0304	0.414	1.42	0.0349	0.0956	0.133	0.0535	
Cc1ccc2cc(C(=O)N3C[C@H]4[C@@H]([C@H]3C(=O)N[C@H](C=O)C[C@@H]3CCNC3=O)C4(C)C)[nH]c2c1 [Compound 72, (1R,2S,5S)-6,6-Dimethyl-3-(6-methyl-1H-indole-2-carbonyl)-N—((S)-1-oxo-3-((S)-2-oxopyrrolidin-3-yl)propan-2-yl)-3-azabicyclo[3.1.0]hexane-2-carboxamide]	0.0313	0.0217	0.346	0.0208	0.0589	0.0494	0.0301	
CC(C)(C)CCC(=O)N1C[C@H]2[C@@H]([C@H]1C(=O)N[C@H](C=O)C[C@@H]1CCNC1=O)C2(C)C [Compound 73, (1R,2S,5S)-3-(4,4-Dimethylpentanoyl)-6,6-dimethyl-N—((S)-1-oxo-3-((S)-2-oxopyrrolidin-3-yl)propan-2-yl)-3-azabicyclo[3.1.0]hexane-2-carboxamide]		0.182	0.326	0.0575	0.0631	0.0714	0.0626	0.0318
CC1(C)[C@@H]2[C@@H](C(=O)N[C@H](C=O)C[C@@H]3CCNC3=O)N(C(=O)c3cc4ccc(C#N)cc4[nH]3)C[C@@H]21 [Compound 74, (1R,2S,5S)-3-(6-Cyano-1H-indole-2-carbonyl)-6,6-dimethyl-N—((S)-1-oxo-3-((S)-2-oxopyrrolidin-3-yl)propan-2-yl)-3-azabicyclo[3.1.0]hexane-2-carboxamide]	0.032	0.0868	0.479	0.0409	0.0614	0.0864	0.0553	
N#Cc1cccc2cc(C(=O)N3C[C@H](C4CCCCC4)C[C@H]3C(=O)N[C@H](C=O)C[C@@H]3CCNC3=O)[nH]c12 [Compound 75, (2S,4S)-1-(7-cyano-1H-indole-2-carbonyl)-4-cyclohexyl-N—((S)-1-oxo-3-((S)-2-oxopyrrolidin-3-yl)propan-2-yl)pyrrolidine-2-carboxamide]	0.0323	0.754	0.604	0.0166	0.066	0.057	0.064	
N#Cc1cccc2[nH]c(C(=O)N3CC4(CC4)C[C@H]3C(=O)N[C@H](C=O)C[C@@H]3CCNC3=O)cc12 [Compound 76, (S)-5-(4-Cyano-1H-indole-2-carbonyl)-N—((S)-1-oxo-3-((S)-2-oxopyrrolidin-3-yl)propan-2-yl)-5-azaspiro[2.4]heptane-6-carboxamide]	0.0327	0.033	0.2	0.0131	0.0606	0.0301	0.0269	
Cc1ccc(F)c2[nH]c(C(=O)N3C[C@H]4[C@@H]([C@H]3C(=O)N[C@H](C=O)C[C@@H]3CCNC3=O)C4(C)C)cc12 [Compound 77, (1R,2S,5S)-3-(7-Fluoro-4-methyl-1H-indole-2-carbonyl)-6,6-dimethyl-N—((S)-1-oxo-3-((S)-2-oxopyrrolidin-3-yl)propan-2-yl)-3-azabicyclo[3.1.0]hexane-2-carboxamide]	0.0331	0.0992	0.401	0.0453	0.0276	0.0838	0.0419	
CC1(C)[C@@H]2[C@@H](C(=O)N[C@H](C=O)C[C@@H]3CCNC3=O)N(C(=O)c3cc4occc4[nH]3)C[C@@H]21 [Compound 78, (1R,2S,5S)-3-(4H-Furo[3,2-b]pyrrole-5-carbonyl)-6,6-dimethyl-N—((S)-1-oxo-3-((S)-2-oxopyrrolidin-3-yl)propan-2-yl)-3-azabicyclo[3.1.0]hexane-2-carboxamide]	0.0333	0.0813	0.479	0.0511	0.0868	0.0669	0.0374	
CC1(C)[C@@H]2[C@@H](C(=O)N[C@H](C=O)C[C@@H]3CCCNC3=O)N(C(=O)CC3CCCCC3)C[C@@H]21 [Compound 79, (1R,2S,5S)-3-(2-Cyclohexylacetyl)-6,6-dimethyl-N—((S)-1-oxo-3-((S)-2-oxopiperidin-3-yl)propan-2-yl)-3-azabicyclo[3.1.0]hexane-2-carboxamide]	0.0345	0.0578	0.177	0.0271	0.0259	0.0386	0.0508	
CC1(C)[C@@H]2[C@@H](C(=O)N[C@H](C=O)C[C@@H]3CCNC3=O)N(C(=O)c3cc4cc(S(C)(=O)=O)ccc4[nH]3)C[C@@H]21 [Compound 80, (1R,2S,5S)-6,6-Dimethyl-3-(5-(methylsulfonyl)-1H-indole-2-carbonyl)-N—((S)-1-oxo-3-((S)-2-oxopyrrolidin-3-yl)propan-2-yl)-3-azabicyclo[3.1.0]hexane-2-carboxamide]	0.035	0.0482	0.384	0.0225	0.0755	0.0633	0.0286	
O=C[C@H](C[C@@H]1CCNC1=O)NC(=O)[C@@H]1C[C@@H](C2CCCCC2)CN1C(=O)c1cc2cccc(Cl)c2[nH]1 [Compound 81, (2S,4S)-1-(7-chloro-1H-indole-2-carbonyl)-4-cyclohexyl-N—((S)-1-oxo-3-((S)-2-oxopyrrolidin-3-yl)propan-2-yl)pyrrolidine-2-carboxamide]	0.0353	1.05	2.98	0.037	0.125	0.173	0.0782	

Source: patent publication US20260355212A1 (priority 2022, published 2026)
